Experiments:
[1] = Binding affinity to recombinant PRC2 complex (unknown origin) incubated for 90 seconds by surface plasmon resonance assay; parameters: species or system Homo sapiens
MV4-11 [2] = assay: Induction of mitochondrial membrane potential in human MV4-11 cells assessed as reduction in red fluorescence intensity at 0.4 uM measured after 48 hrs by JC1 staining-based flow cytometry analysis (reference value: 98.8%); type: functional; parameters: scale not given: the % may be the effect or the level left
L02 = assay: Cytotoxicity against human L02 cells assessed as increase in combination index measured after 72 hrs by CCK-8 assay; type: toxicity, cell-based; conditions: l02, 72 h
MV4-11 [3] = assay: Induction of apoptosis in human MV4-11 cells assessed as early apoptotic cells at 0.2 uM measured after 48 hrs by Annexin V/7-AAD-dual staining based flow cytometric analysis (reference value: 2.2 %); type: functional
MV4-11 [4] = assay: Induction of apoptosis in human MV4-11 cells assessed as necrotic cells at 0.2 uM measured after 48 hrs by Annexin V/7-AAD-dual staining based flow cytometric analysis (reference value: 0.3 %); type: functional
Histone deacetylase 9 = Histone deacetylase 9 (Homo sapiens, UniProt Q9UKV0); assay: Inhibition of HDAC9 (unknown origin) incubated for 2 hrs by Multimode microplate reader analysis
Sequence of Histone deacetylase 9 (Q9UKV0 whole entry, the tested form may be a part): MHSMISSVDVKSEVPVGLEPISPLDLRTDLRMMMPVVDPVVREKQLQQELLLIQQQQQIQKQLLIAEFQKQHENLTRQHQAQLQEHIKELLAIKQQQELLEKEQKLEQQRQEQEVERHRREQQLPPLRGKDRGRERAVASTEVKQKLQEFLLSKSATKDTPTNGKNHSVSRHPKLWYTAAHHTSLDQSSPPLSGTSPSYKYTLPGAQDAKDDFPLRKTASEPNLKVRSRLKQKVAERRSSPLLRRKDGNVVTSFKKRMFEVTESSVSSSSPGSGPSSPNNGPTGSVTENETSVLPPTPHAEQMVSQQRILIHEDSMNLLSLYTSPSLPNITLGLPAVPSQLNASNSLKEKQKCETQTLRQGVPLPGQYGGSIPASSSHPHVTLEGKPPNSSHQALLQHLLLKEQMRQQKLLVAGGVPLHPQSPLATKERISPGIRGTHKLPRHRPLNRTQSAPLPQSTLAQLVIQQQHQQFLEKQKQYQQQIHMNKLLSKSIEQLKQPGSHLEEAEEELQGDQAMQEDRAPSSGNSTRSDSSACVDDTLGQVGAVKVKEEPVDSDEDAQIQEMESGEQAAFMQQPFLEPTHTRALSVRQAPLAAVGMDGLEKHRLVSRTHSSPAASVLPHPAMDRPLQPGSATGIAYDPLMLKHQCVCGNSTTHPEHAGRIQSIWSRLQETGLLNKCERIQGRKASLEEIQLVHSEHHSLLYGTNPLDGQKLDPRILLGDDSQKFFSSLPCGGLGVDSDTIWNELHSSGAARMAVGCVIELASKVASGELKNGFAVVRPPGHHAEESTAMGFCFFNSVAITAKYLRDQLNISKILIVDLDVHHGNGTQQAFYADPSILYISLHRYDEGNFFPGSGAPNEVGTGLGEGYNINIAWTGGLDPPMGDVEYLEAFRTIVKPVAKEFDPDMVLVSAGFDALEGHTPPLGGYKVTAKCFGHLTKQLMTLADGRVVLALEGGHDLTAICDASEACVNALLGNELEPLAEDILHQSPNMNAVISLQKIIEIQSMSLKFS

Histone deacetylase 8 = biological target: T1, Histone deacetylase 8 (Homo sapiens, UniProt Q9BY41); assay: Inhibition of recombinant C-terminal His-fusion tagged/N-terminal Strep2 tagged human HDAC8 (1 to 377 residues) expressed in insect cells using RHK-K(Ac)-K(Ac)-AMC as substrate incubated for 2 hrs by Multimode microplate reader analysis
T1 sequence (Q9BY41 whole entry): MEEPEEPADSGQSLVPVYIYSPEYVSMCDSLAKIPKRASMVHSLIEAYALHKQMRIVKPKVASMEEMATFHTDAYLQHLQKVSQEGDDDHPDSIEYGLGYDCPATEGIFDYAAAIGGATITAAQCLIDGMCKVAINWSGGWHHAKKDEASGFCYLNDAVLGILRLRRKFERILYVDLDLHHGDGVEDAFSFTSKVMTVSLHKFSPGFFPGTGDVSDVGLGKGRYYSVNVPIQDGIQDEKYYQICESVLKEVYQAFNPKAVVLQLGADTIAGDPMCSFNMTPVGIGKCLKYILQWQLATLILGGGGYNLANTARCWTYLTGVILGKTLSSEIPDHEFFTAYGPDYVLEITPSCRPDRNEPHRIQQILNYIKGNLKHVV

MV4-11 [5] = assay: Induction of mitochondrial membrane potential in human MV4-11 cells assessed as reduction in red fluorescence intensity at 0.2 uM measured after 48 hrs by JC1 staining-based flow cytometry analysis (reference value: 98.8%); type: functional; parameters: scale not given: the % may be the effect or the level left
MV4-11 [6] = assay: Induction of mitochondrial membrane potential in human MV4-11 cells assessed as reduction in red fluorescence intensity at 0.1 uM measured after 48 hrs by JC1 staining-based flow cytometry analysis (reference value: 98.8%); type: functional; parameters: scale not given: the % may be the effect or the level left
MV4-11 [7] = assay: Induction of apoptosis in human MV4-11 cells assessed as necrotic cells at 0.1 uM measured after 48 hrs by Annexin V/7-AAD-dual staining based flow cytometric analysis (reference value: 0.3 %); type: functional
Histone deacetylase 2 = Histone deacetylase 2 (Homo sapiens, UniProt Q92769); assay: Inhibition of full length recombinant human C-terminal GST-fusion-tagged human HDAC2 (1 to 488 residues) expressed in insect cells using RHK-K(Ac)-AMC as substrate incubated for 2 hrs by Multimode microplate reader analysis
Sequence of Histone deacetylase 2 (Q92769 whole entry, the tested form may be a part): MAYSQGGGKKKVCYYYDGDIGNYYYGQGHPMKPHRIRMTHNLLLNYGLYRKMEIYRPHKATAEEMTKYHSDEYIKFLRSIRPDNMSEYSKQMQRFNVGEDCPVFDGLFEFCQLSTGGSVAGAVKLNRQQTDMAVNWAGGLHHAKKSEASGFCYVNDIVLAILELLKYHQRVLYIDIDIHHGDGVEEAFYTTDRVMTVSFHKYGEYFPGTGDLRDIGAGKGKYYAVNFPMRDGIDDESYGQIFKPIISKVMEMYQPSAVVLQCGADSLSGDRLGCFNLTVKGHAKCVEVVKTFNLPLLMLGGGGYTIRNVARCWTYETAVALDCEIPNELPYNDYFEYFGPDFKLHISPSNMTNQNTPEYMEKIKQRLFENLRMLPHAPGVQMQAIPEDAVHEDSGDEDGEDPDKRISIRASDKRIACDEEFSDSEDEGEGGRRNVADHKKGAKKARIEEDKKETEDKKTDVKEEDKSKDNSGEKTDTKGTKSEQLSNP

Histone deacetylase 5 = Histone deacetylase 5 (Homo sapiens, UniProt Q9UQL6); assay: Inhibition of recombinant C-terminal his fusion-tagged human HDAC5 (656 to 1122 residues) expressed in baculovirus expression system using trifluoroacetyl lysine as substrate incubated for 2 hrs by Multimode microplate reader analysis
Sequence of Histone deacetylase 5 (Q9UQL6 whole entry, the tested form may be a part): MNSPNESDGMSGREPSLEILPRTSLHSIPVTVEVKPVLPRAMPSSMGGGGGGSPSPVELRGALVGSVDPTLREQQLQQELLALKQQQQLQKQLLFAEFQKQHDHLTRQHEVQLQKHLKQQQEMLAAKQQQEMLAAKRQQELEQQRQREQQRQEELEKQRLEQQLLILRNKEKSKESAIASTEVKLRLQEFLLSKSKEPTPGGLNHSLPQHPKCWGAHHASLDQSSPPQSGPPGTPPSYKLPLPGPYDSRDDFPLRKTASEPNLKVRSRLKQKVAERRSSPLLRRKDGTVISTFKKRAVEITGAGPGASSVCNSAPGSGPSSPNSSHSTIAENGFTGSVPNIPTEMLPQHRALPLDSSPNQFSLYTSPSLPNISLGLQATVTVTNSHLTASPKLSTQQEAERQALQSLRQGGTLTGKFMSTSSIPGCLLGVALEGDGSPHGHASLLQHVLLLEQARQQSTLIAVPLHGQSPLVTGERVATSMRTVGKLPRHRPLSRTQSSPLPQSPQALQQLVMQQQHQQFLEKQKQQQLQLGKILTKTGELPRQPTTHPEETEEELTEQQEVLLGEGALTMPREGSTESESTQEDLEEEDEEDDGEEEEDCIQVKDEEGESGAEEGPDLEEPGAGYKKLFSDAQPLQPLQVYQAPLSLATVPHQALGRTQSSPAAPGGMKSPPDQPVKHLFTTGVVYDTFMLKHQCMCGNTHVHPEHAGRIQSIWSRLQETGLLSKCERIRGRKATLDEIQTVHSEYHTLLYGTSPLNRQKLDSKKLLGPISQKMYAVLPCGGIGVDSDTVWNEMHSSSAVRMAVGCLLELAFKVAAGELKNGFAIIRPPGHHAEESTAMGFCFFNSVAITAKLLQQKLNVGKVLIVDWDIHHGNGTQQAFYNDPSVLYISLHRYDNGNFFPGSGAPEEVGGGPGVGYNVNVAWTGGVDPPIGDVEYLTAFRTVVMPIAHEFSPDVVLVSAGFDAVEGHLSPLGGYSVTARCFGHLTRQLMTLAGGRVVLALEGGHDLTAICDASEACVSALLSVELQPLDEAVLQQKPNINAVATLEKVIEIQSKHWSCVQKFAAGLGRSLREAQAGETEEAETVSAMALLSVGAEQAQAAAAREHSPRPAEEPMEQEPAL

[8] = Metabolic stability in human liver microsomes assessed as half life measured after 5 mins in presence of NADPH and UDPGA by LC-MS/MS analysis; type: ADME, Microsome
MV4-11 [9] = assay: Induction of apoptosis in human MV4-11 cells assessed as viable cells at 0.2 uM measured after 48 hrs by Annexin V/7-AAD-dual staining based flow cytometric analysis (reference value: 96.4 %); type: functional; conditions: read-out: Activity
MV4-11 [10] = assay: Induction of apoptosis in human MV4-11 cells assessed as late apoptotic cells at 0.2 uM measured after 48 hrs by Annexin V/7-AAD-dual staining based flow cytometric analysis (reference value: 1.1 %); type: functional
Histone deacetylase 4 = Histone deacetylase 4 (Homo sapiens, UniProt P56524); assay: Inhibition of N-terminal GST-tagged/C-terminal His-tagged human HDAC4 (627 to 1084 residues) expressed in baculovirus expression system using trifluoroacetyl lysine as substrate incubated for 2 hrs by Multimode microplate reader analysis
Sequence of Histone deacetylase 4 (P56524 whole entry, the tested form may be a part): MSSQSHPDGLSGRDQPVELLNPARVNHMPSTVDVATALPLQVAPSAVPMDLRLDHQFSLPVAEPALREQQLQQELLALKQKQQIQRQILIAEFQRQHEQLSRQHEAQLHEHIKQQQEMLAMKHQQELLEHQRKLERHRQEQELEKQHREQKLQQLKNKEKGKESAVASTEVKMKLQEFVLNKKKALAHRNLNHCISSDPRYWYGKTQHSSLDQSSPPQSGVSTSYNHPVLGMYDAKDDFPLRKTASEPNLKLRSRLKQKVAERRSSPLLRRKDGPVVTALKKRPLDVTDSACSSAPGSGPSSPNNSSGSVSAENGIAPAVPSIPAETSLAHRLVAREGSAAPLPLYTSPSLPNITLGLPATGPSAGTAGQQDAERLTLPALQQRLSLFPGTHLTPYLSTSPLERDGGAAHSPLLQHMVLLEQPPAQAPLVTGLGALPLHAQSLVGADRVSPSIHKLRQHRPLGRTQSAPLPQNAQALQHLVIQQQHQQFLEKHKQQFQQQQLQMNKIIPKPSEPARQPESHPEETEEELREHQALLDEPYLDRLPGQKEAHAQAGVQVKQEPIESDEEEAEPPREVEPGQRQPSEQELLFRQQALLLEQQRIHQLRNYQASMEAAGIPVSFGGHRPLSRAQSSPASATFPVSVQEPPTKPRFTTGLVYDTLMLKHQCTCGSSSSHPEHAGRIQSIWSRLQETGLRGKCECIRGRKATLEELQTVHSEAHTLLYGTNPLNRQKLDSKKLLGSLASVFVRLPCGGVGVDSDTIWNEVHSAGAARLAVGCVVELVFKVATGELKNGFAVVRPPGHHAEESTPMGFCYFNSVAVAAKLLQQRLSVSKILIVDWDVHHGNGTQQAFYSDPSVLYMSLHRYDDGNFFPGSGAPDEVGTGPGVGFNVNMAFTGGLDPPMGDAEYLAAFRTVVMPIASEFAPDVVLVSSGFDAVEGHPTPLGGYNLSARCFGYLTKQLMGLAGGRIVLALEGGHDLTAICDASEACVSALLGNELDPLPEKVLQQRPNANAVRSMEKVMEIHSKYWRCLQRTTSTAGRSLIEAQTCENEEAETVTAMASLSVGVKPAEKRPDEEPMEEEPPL

MV4-11 [11] = assay: Induction of apoptosis in human MV4-11 cells assessed as viable cells at 0.4 uM measured after 48 hrs by Annexin V/7-AAD-dual staining based flow cytometric analysis (reference value: 96.4 %); type: functional; conditions: read-out: Activity

## Cc1cc(C)c(CNC(=O)c2cc(-c3ccc(N4CCN(c5ncc(C(=O)NO)cn5)CC4)nc3)cc3c2cnn3C(C)C)c(=O)[nH]1
[1]
  Kd: 39 nM
MV4-11 [2]
  Activity: 72%
L02
  Activity: Toxic
MV4-11 [3]
  Activity: 10.3%
MV4-11 [4]
  Activity: 2%
Histone deacetylase 9
  IC50: 7050 nM
Histone deacetylase 8
  IC50: 110 nM
MV4-11 [5]
  Activity: 84.3%
MV4-11 [6]
  Activity: 92.9%
MV4-11 [7]
  Activity: 1.9%
Histone deacetylase 2
  IC50: 780 nM
Histone deacetylase 5
  IC50: 2860 nM
[8]
  half-life: 15.3 min
MV4-11 [9]
  viability at 0.2 µM: 74%
MV4-11 [10]
  Activity: 11.1%
Histone deacetylase 4
  IC50: 5640 nM
MV4-11 [11]
  viability at 0.4 µM: 53.8%

From ChEMBL document CHEMBL5108052, “Histone Deacetylase and Enhancer of Zeste Homologue 2 Dual Inhibitors Presenting a Synergistic Effect for the Treatment of Hematological Malignancies” (J Med Chem, 2022)
